These results are taken from US11691981B2, “Heterocyclic compounds, preparation methods therefor, and methods of uses thereof” (INVENTISBIO CO., LTD., priority 2019, dated 2023).

One may read the IC50 as the concentration needed to halve the response being measured. High values mean weaker potency, low ones greater potency. By Papp A→B is commonly meant the apparent permeability from the apical to the basolateral side of a cell layer. A low value points to poor permeation. As usually defined, the Papp B→A is how fast a substance crosses the layer from the basolateral side. Broadly, the efflux ratio is the permeability from basolateral to apical divided by that in the opposite direction, in the common usage.

In one data set the test system is pooled human hepatocytes. The data set can be described thus: Human hepatocyte clearance study. It is filed as in vitro ADME. The note with it: human hepatocytes, 0.5×10^6 viable cells/mL, 120 min. The procedure: (§1) The in vitro human hepatocyte clearance of compounds described here was studied using pooled human hepatocytes purchased from BioreclamationIVT (Westbury, N.Y., Cat #X008001, Lot #TQJ). The assay was conducted according to manufacturer's instruction. Briefly, 10 mM stock solutions of test compounds and positive control (Verapamil) were prepared in 100% DMSO. Thawing media (50 mL) used in the study consists of: 31 mL Williams E medium (GIBCO Cat #12551-032); 15 mL isotonic percoll (GE Healthcare Cat #17-0891-09); 500 uL 100× GlutaMax (GIBCO Cat #35050); 750 uL HEPES (GIBCO Cat #15630-080); 2.5 mL FBS (Corning Cat #35-076-CVR); 50 uL human insulin (GIBCO Cat #12585-014) and 5 uL dexamethasone (NICPBP). Incubation media is made of Williams E medium supplemented with 1× GlutaMax. Both thawing medium and incubation medium (serum-free) were placed in a 37° C. water bath for at least 15 minutes prior to use. Compound stock solutions were diluted to 100 μM by combining 198 μL of 50% acetonitrle/50% water and 2 μL of 10 mM stock solution. Verapamil was use as positive control in the assay. Vials of cryopreserved hepatocytes were removed from storage and thawed in a 37° C. water bath with gentle shaking. Contents of the vial were poured into the 50 mL thawing medium conical tube. Vials were centrifuged at 100 g for 10 minutes at room temperature. Thawing medium was aspirated and hepatocytes were re-suspended with serum-free incubation medium to yield ˜1.5×10^6 cells/mL. Hepatocyte viability and density were counted using a Trypan Blue exclusion, and then cells were diluted with serum-free incubation medium to a working cell density of 0.5×10^6 viable cells/mL. Then, a portion of the hepatocytes at 0.5×10^6 viable cells/mL was boiled for 5 minutes prior to adding to the plate as negative control to eliminate the enzymatic activity so that little or no substrate turnover should be observed. The boiled hepatocytes were used to prepare negative samples. Aliquots of 198 μL hepatocytes were dispensed into each well of a 96-well non-coated plate. The plate was placed in the incubator on an orbital shaker at 500 rpm for approximately 10 minutes. Aliquots of 2 μL of the 100 μM test compound or positive control were added into respective wells of the non-coated 96-well plate to start the reaction. This assay was performed in duplicate. The plate was incubated in the incubator on an orbital shaker at 500 rpm for the designated time points. Twenty-five microliter of contents were transferred and mixed with 6 volumes (150 μL) of cold acetonitrile with IS (200 nM imipramine, 200 nM labetalol and 200 nM diclofenac) to terminate the reaction at time points of 0, 15, 30, 60, 90 and 120 minutes. Samples were centrifuged at 3,220 g for 25 minutes and aliquots of 150 μL of the supernatants were used for LC-MS/MS analysis. For data analysis, all calculations were carried out using Microsoft Excel. Peak areas were determined from extracted ion chromatograms. The in vitro half-life (t1/2) of parent compound was determined by regression analysis of the percent parent disappearance vs. time curve. The in vitro half-life (in vitro ti) was determined from the slope value: in vitro t1/2=0.693/k. […] Scaling factors for in vivo intrinsic clearance prediction using human hepatocytes are listed as: liver weight (g liver/kg body weight): 25.7; hepatocyte concentration (10^6 cells/g liver): 99; scaling factor: 2544.3.

Data set [1] is described as follows: Human hepatocyte clearance study. The settings on record: pooled cryopreserved human hepatocytes (suspension); for hepatocyte CLint at 1 µM / half-life at 1 µM: human; for hepatocyte CLint at 1 µM: read-out: Human In vitro Clint; for half-life at 1 µM: read-out: Human In vitro T1/2; for CLint scaled at 1 µM: human hepatocytes, scaling factor 2544.3, read-out: Human Scale-up Clint. It is filed as in vitro ADME. How it is done: as §1

The next data set deals with TGFβR2 (Homo sapiens (Human), UniProt P37173). The experiment in a line: TGFβR2 kinase inhibition assay (ADP-Glo). The settings on record: 10 uM ATP, 120 min room temperature. The class given is biochemical. How it is done: The TGFβR2 enzyme reaction was carried out as follows: 50 nL of compound in DMSO (or DMSO controls) were stamped into 384 white, low-volume plates. 2.5 μL of 2× enzyme solution (final enzyme concentration was 3 ng/uL in 40 mMTris, 7.5; 20 mM MgCl2; 0.1 mg/mL BSA; 1 mM DTT) was dispensed into assay plate. The plate was then sealed and spun at 1000 rpm for 30 s and incubated at room temperature for 10 min. Followed by addition of 2.5 μL of 2× substrate solution that contains both ATP (to make a final concentration of 10 uM) and TGFβR2 substrate (final concentration of 0.2 ug/uL). The plate was then sealed and spun at 1000 rpm for 30 s and the reaction was then incubated at room temperature for 120 min. After that 5 μL ADP-Glo™ Reagent was added into the assay wells to stop the reaction and deplete unconsumed ATP for 40 min at room temperature; then, 10 μL of Detection Reagent was added into the assay wells, followed by 40 min incubation to develop luminescence. The luminescence signal was then collected on Envision 2104 plate reader.
On the technique in general: ADP-Glo turns the ADP formed in a reaction into a luminescent signal.

Another data set addresses TGFβR1 (Homo sapiens (Human), UniProt P36897). The data set can be described thus: TGFβR1 kinase inhibition assay (ADP-Glo Kinase Assay). It is filed as biochemical. The settings on record: 40 nM TGFβR1 in 2x enzyme mix, 5.4 μM ATP in 2x substrate mix, 120 min RT. How it is done: TGFβR1 kinase assay was performed according to the instruction manual of the ADP-Glo™ Kinase Assay kit provided by Promega. Prepare 1× Kinase buffer (50 mM Tris pH7.5, 0.1% BSA, 10 mM MgCl2, 1 mM DTT). Before activation reaction was started, Compounds were dissolved in DMSO and make 100× solution with 3-fold serial dilution for a total of 10 concentrations. Transfer 50 nL compounds to 384-well plate according to plate map using the automated liquid handler. […] Add 5 μL ADP-Glo Reagent to terminate the kinase reaction and deplete the remaining ATP, incubate at RT for 60 minutes. Add 10 μL Kinase Detection Reagent to convert ADP to ATP and allow the newly synthesized ATP to be measured using a luciferin reaction, incubate at RT for 30 minutes. Collect luminescence data with Envision.

The next data set relates to P-glycoprotein (MDR1). The data set can be described thus: P-glycoprotein substrate potential / permeability in MDR1-transfected MDCK cells. The class given is in vitro ADME. The settings on record: dog, pH 7.4. The procedure:
MDCK-MDR1 cells were seeded into 96-well HTS Transwell plate at the density of 5.45×10^5/cm^2. Cells were cultivated for 4-7 days before the transport assay. Transepithelial electrical resistance (TEER) of MDCK-MDR1 monolayer was measured before the experiment with the Millicell Epithelial Volt-Ohm measuring system.
Transport assay: Cell monolayers were pre-incubated in transport medium (TM, HBSS with 25 mM HEPES, pH 7.4) for 30 min at 37° C. After preincubation, the study was initiated by adding the test compound to the donor side and TM to the receiver side. Compound transport was assessed at 1 μM in two directions (apical, AP to basolateral, BL and BL to AP) and the study was carried out in the presence and absence of P-gp inhibitor verapamil in both AP and BL compartments. After two hours incubation, aliquots of 50 μL from donor or receiver side were removed and mixed with 4 volumes of acetonitrile containing internal standards (200 nM alprazolam, 200 nM labetalol, 2 μM ketoprofen). Samples were analyzed by UPLC-MS/MS. All incubations were performed in duplicate. After the transport experiment, Lucifer Yellow leakage was measured in a fluorescence plate reader at 485 nm excitation and 530 nm emission.
Data Analysis: All calculations were carried out using Microsoft Excel. Peak areas are determined from extracted ion chromatograms.
The apparent permeability coefficient (Papp), in units of centimeter per second, was calculated for MDCK-MDR1 drug transport assays using the following equation: […]
Where VA is the volume (in mL) in the acceptor well, Area is the surface area of the membrane (0.143 cm2 for Transwell-96 Well Permeable Supports), and time is the total transport time in seconds.
The efflux ratio was determined using the following equation: […]
Where Papp (B-A) indicates the apparent permeability coefficient in basolateral to apical direction, and Papp (A-B) indicates the apparent permeability coefficient in apical to basolateral direction.

Sequence of TGFβR2 (P37173 23-567): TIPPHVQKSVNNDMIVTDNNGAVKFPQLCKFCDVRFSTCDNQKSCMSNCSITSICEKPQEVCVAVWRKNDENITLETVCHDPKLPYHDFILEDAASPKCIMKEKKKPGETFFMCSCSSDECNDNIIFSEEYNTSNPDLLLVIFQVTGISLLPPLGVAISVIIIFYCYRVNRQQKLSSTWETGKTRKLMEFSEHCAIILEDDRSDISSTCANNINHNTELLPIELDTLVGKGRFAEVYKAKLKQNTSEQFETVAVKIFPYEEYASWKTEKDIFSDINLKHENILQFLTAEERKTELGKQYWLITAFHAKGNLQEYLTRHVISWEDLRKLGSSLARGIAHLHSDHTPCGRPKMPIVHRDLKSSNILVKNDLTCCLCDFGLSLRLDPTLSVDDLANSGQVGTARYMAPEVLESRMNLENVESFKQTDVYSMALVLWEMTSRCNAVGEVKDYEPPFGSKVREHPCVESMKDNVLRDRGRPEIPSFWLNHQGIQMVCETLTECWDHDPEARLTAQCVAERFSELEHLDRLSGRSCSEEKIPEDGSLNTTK
Sequence of TGFβR1 (P36897 34-503): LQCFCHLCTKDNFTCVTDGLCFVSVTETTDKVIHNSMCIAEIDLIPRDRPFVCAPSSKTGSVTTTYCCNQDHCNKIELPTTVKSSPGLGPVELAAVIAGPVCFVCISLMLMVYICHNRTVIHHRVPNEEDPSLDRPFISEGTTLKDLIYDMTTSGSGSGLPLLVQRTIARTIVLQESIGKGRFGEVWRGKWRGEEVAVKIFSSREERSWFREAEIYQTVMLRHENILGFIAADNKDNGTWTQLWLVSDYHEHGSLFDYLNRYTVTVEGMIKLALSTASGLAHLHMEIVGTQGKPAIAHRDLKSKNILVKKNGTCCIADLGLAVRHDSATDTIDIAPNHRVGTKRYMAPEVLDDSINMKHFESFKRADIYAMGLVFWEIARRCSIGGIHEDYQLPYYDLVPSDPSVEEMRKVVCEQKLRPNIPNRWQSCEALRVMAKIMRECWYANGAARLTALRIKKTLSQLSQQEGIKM

Take `NS(=O)(=O)c1ccc(Nc2cc(Oc3cc(C(F)(F)F)nn3C3CCOCC3)ccn2)cc1` [Compound 12]: the “Human Hepatocyte Remaining Percentage @ 120 min” value in the data set on pooled human hepatocytes amounted to 64%. In data set [1], the hepatocyte CLint at 1 µM came to 7.7 µL/min/1e6 cells, the half-life at 1 µM stood at 3 h and the CLint scaled at 1 µM is 19.6 mL/min/kg. Further, on TGFβR2, the half-maximal inhibitory concentration (IC50) was > 100000 nM. Moreover, the IC50 against TGFβR1 was determined as 28 nM.
Regarding `NS(=O)(=O)c1ccc(Nc2cc(Oc3cc(C4CC4)nn3C3CC3)ccn2)cc1` [Compound 13], the “Human Hepatocyte Remaining Percentage @ 120 min” value in the data set with pooled human hepatocytes is recorded as 65%. Also, in data set [1], the hepatocyte CLint at 1 µM was 7.5 µL/min/1e6 cells, the half-life at 1 µM amounted to 3.08 h and the CLint scaled at 1 µM was 19 mL/min/kg. Besides, on TGFβR2, the IC50 was > 100000 nM. Besides, on TGFβR1, the IC50 turned out to be 44 nM.
As for `Cn1nc(C(F)(F)F)cc1Oc1ccnc(Nc2ccnc(C(C)(C)O)c2)c1` [Compound 23], the “Human Hepatocyte Remaining Percentage @ 120 min” value with pooled human hepatocytes is listed as 88%. In addition, in data set [1], the hepatocyte CLint at 1 µM was determined as 2.2 µL/min/1e6 cells, the half-life at 1 µM stood at 10.4 h and the CLint scaled at 1 µM is 5.6 mL/min/kg. Also, the IC50 against TGFβR1 was found to be 38 nM.
Regarding `CC(C)(O)c1cc(Nc2cc(Oc3cc(C(F)(F)F)nn3C3CCCNC3)ccn2)ccn1` (centres unmarked) [Compound 33], the IC50 against TGFβR2 was > 100000 nM; at TGFβR1, 49 nM.
With `Cc1ccc(-n2nc(C(F)(F)F)cc2Oc2ccnc(Nc3ccnc(C(C)(C)O)c3)c2)cc1` [Compound 34], the IC50 on TGFβR2 came to 17000 nM; at TGFβR1, 42 nM.
Regarding `CC(C)(O)c1cc(Nc2cc(Oc3cc(C(F)(F)F)nn3-c3ccccc3F)ccn2)ccn1` [Compound 38], the concentration for half-maximal inhibition (IC50) on TGFβR2 came to 15000 nM; against TGFβR1, 18 nM.
In the data set with P-glycoprotein (MDR1) (MDCK-MDR1, 1 μM, apical to basolateral, two hours), `CC(C)(O)c1cc(Nc2cc(Oc3cc(C(F)(F)F)nn3-c3ccccn3)ccn2)ccn1` [Compound 41] came in with a Papp A→B at 2 h, 1 µM of 3.63 ×10⁻⁶ cm/s. This compound also yielded a Papp B→A at 2 h, 1 µM in the data set with P-glycoprotein (MDR1) (MDCK-MDR1, 1 μM, basolateral to apical, two hours) of 4.88 ×10⁻⁶ cm/s. Further, the efflux ratio at 2 h, 1 µM in the data set on P-glycoprotein (MDR1) (MDCK-MDR1, Papp (B-A)/Papp (A-B)) worked out at 1.35. Besides, the IC50 at TGFβR2 turned out to be 15000 nM; against TGFβR1, 12 nM.
Turning to `CC(C)(O)c1cc(Nc2cc(Oc3cc(C(F)(F)F)nn3-c3c(F)cccc3F)ccn2)ccn1` [Compound 45], the results for the 50% inhibitory concentration (IC50) against TGFβR2 and on TGFβR1 were 21000 nM and 13 nM, respectively.
On to `CC(C)(O)c1ccc(Nc2cc(Oc3cc(C(F)(F)F)nn3-c3ccccc3F)ccn2)cn1` [Compound 52], for which the half-maximal inhibitory concentration (IC50) against TGFβR2 came out at 16000 nM; on TGFβR1 it was 21 nM.
`CC(C)(O)c1ccc(Nc2cc(Oc3cc(C(F)(F)F)nn3-c3c(F)cccc3F)ccn2)cn1` [Compound 53]: the IC50 is 56000 nM at TGFβR2 and 18 nM on TGFβR1.
Turning to `CC(C)(O)c1cc(Nc2cc(Oc3cccnc3C3CCOCC3)ccn2)ccn1` [Compound 54], the “Human Hepatocyte Remaining Percentage @ 120 min” value in the data set on pooled human hepatocytes is 61%. Moreover, in data set [1], the hepatocyte CLint at 1 µM amounted to 6.8 µL/min/1e6 cells, the half-life at 1 µM was determined as 3.38 h and the CLint scaled at 1 µM came out at 17.4 mL/min/kg. The half-maximal inhibitory concentration (IC50) against TGFβR2 is > 100000 nM. On TGFβR1, this compound displayed an IC50 of 56 nM.
For the compound `Cc1ccc(Oc2ccnc(Nc3ccnc(C(C)(C)O)c3)c2)c(C2CCOCC2)n1` [Compound 55], the IC50 against TGFβR2 was 15000 nM; against TGFβR1, 35 nM.
In the case of `Cc1ccc(Oc2ccnc(Nc3ccnc(C(C)(C)O)c3)c2)c(C2CC2)n1` [Compound 58], the IC50 is 11000 nM on TGFβR2 and 39 nM at TGFβR1.
Take `Cc1ccc(Oc2ccnc(Nc3ccc(S(N)(=O)=O)cc3)c2)c(C2CCOCC2)n1` [Compound 59]: the IC50 amounted to 10000 nM on TGFβR2 and 32 nM at TGFβR1.
`CC(C)(O)c1cc(Nc2cc(Oc3cn(C4CCC4)nc3C3CCOCC3)ccn2)ccn1` [Compound 67]: the IC50 against TGFβR2 is > 100000 nM; on TGFβR1, 51 nM.
Regarding `CC(C)(O)c1cc(Nc2cc(Oc3cn(C4CCCC4)nc3C3CCOCC3)ccn2)ccn1` [Compound 68], the concentration for half-maximal inhibition (IC50) was > 100000 nM at TGFβR2 and 631 nM against TGFβR1.
As to `CC(C)(O)c1cc(Nc2cc(Oc3cn(CC(F)(F)F)nc3C3CCOCC3)ccn2)ccn1` [Compound 69], the IC50 against TGFβR2 was > 100000 nM; on TGFβR1, 454 nM.
Take `CC1(C)OC(=N)c2ccc(Nc3cc(Oc4cn(C5CC5)nc4C4CCOCC4)ccn3)cc21` [Compound 78]: the concentration for half-maximal inhibition (IC50) on TGFβR2 was > 100000 nM; against TGFβR1, 22 nM.
For `CC1(C)OC(=O)c2ccc(Nc3cc(Oc4cn(C5CC5)nc4C4CCOCC4)ccn3)cc21` [Compound 79], the values for the half-maximal inhibitory concentration (IC50) on TGFβR2 and against TGFβR1 were 73000 nM and 29 nM, respectively.
